Data taken from patent publication US5045222A, “Use of triacylated ethanolamines as liquid, water-miscible peroxide activators” (Hoechst Aktiengesellschaft, priority 1988, dated 1991).

Experiments:
[1] = background discussion; cited from earlier work
[2] = Determination of the water solubility of activators; type: physicochemical; details: for Water solubility / miscibility with water (words): in words, temperature not stated
Description: The water solubility of N,N,O-triacetylethanolamine (TAEA) and ethylidene benzoate acetate (EBA) was determined by known methods.

[3] = Perhydrolysis rate of dissolved activator (titration of total active oxygen and peracid); details: for time required for 90% conversion of activator: predissolved activator; for Perhydrolysis rate / release of peracid: in words, with hydrogen peroxide or percompounds
Description: The experimental determination of the perhydrolysis rate of the activators TAEA (triacetylethanolamine), TAED (tetraacetylethylenediamine) and isonobs (sodium isononanoyloxybenzenesulfonate) was carried out under wash conditions in a 2 1 beaker in a thermostat. An electrical stirrer ensured uniform stirring of a 2 percent strength solution of an IEC standard detergent composition, to which perborate had been added together with 20 ml of a cherry juice solution as a bleachable stain.
The activators were predissolved in a little water and added to the abovementioned temperature controlled washing liquor. At each set time interval (1-5 minutes) a 50 ml sample was removed and titrated for total active oxygen and peracid.
pH dependence of perhydrolysis of dissolved bleach activators at 22° C.; time required [min] for 90% conversion of activator: […]

[4] = Wash tests in Launder-O-meter at 60° C., tea stain
[5] = Washing tests in Launder-O-meter at room temperature, tea stain; details: 25° C.

Molecule: CC(=O)OC(C)OC(=O)c1ccccc1 (stereo not shown) [EBA, ethylidene benzoate acetate]
- Solubility in water (words, prior-art activator) [1]: limited solubility in water
- Water solubility ([2]; 23° C.): 700 µg/mL
- Water solubility ([2]; 37° C.): 800 µg/mL

Molecule: CC(CC(=O)Oc1ccc(S(=O)(=O)[O-])cc1)CC(C)(C)C.[Na+] (stereo not shown) [Isonobs, sodium isononanoyloxybenzenesulfonate]
- time required for 90% conversion of activator ([3]; pH 9, 22° C.): > 30 min
- time required for 90% conversion of activator ([3]; pH 10, 22° C.): 11 min
- time required for 90% conversion of activator ([3]; pH 11, 22° C.): 1.5 min

Molecule: CC(=O)OCCN(C(C)=O)C(C)=O [TAEA, N,N,O-triacetylethanolamine]
- bleaching performance ([4]; tea and red wine stains): superior in bleaching performance to previously known EDA and to non-liquid DALEA
- bleaching effect ([5]; tea and red wine stains): superior bleaching effect
- Water solubility (infinite, unit not given) ([2]; 23° C.): .infin.
- Water solubility (infinite, unit not given) ([2]; 37° C.): .infin.
- Water solubility / miscibility with water (words) [2]: complete miscibility of the compound with water
- Water solubility / miscibility with water (words) ([2]; listed as triacetylethanolamine): has the best water solubility and is miscible with water in any proportion
- Perhydrolysis rate / release of peracid [3]: releases one mole of peracetic acid very rapidly, in fact as rapidly as predissolved TAED
- Perhydrolysis rate / release of peracid ([3]; listed as Triacetylethanolamine (TAEA)): readily reacts in aqueous solution with hydrogen peroxide or inorganic persalts to form peracetic acid
- time required for 90% conversion of activator ([3]; pH 9, 22° C.): 12 min
- time required for 90% conversion of activator ([3]; pH 10, 22° C.): 7 min
- time required for 90% conversion of activator ([3]; pH 11, 22° C.): 1 min

Molecule: sodium perborate [PB]
- Reflectance values ([4]; tea stain, 30 minutes, 25 mg active oxygen per liter, 1.5 g IEC basic washing powder per liter): 62.9
- Reflectance ([5]; tea stain, 15 minutes, 3% activator and 10% sodium perborate): 52.8

Molecule: CC(=O)N(CCN(C(C)=O)C(C)=O)C(C)=O [TAED, tetraacetylethylenediamine]
- time required for 90% conversion of activator ([3]; pH 9, 22° C.): 15 min
- time required for 90% conversion of activator ([3]; pH 10, 22° C.): 7 min
- time required for 90% conversion of activator ([3]; pH 11, 22° C.): 1 min
